The source of these data is patent US5470858A, “Derivatives of (hetero)aromatic ethers and thioethers having antihyperlipidemic activity, process for their preparation and pharmaceutical compositions containing them” (Pierrel SpA, priority 1991, dated 1995).

Counter-ions that a name gives are not always drawn. Like-named read-outs stand apart in the source and are kept apart here.

This data set relates to hyperlipaemic SD male rats. The data set can be described thus: Hypolipemizing activity, 5 days experimental model, modified Nath diet. The format is in vivo. The following applies: rat, oral; for change in vivo at 100 mg/kg/day / change in vivo at 300 mg/kg/day: 120 h; for Hepatic index (percent variation vs hyperlipaemic controls): index = (Liver weight/body weight) × 100. The method, then: The hypolipemizing activity of the compounds of the present invention has been evaluated in the rat using SD male animals (Charles River) of an initial weight of 150 g, housed in controlled environment at a temperature of 21°±1° C., relative humidity 60% and a 12 hours light/dark cycle.
Experimental models have been used in which the animals are rendered hiperlipaemic by "ad libitum" food administration with a modified Nath diet (Atherosclerosis 30, 1978, pag. 45-46) having the following composition: […]
hydrogenated coconut oil
In the first model the animals have been fed with this diet for 5 consecutive days, during which they received the pharmacological treatment once a day by oral route and were sacrificed 2 hours after the last administration.
At the time of the sacrifice the blood was removed, for the lipid determination, as well as the liver the weight of which was the index of a possible hepatomegaly.
By this experimental model the concentration of the serum lipids attained very high values which, in the control group, was four times the normal values for the total cholesterol and the triglycerides.
The determination of the triglycerides, of the total cholesterol and of the cholesterol associated to the HDL has been effected by means of a commercial enzymatic kit. The concentration of the cholesterol associated to VLDL+LDL has been determined by difference between total cholesterol and HDL.
The results obtained in the experimental model of the 5 days duration for some compounds representative of the invention are reported in the following table 1. The data are expressed as percent variation with respect to the hyperlipaemic controls to which carboxymethylcellulose as 0.5% in water at the dose of 10 ml/kg/day by oral route was administered. The same vehicle was used for the suspension of the tested compounds at the doses of 100 and 300 mg/kg/day by oral route.

The mark [1] stands for this setting: 100 mg/kg/day, by difference between total and HDL, read-out: Cholesterol VLDL + LDL (percent variation vs hyperlipaemic controls).
The mark [2] stands for this setting: 100 mg/kg/day, read-out: Cholesterol HDL (percent variation vs hyperlipaemic controls).
The mark [3] stands for this setting: 100 mg/kg/day, read-out: Total Cholesterol (percent variation vs hyperlipaemic controls).
Setting [4] is: 100 mg/kg/day, read-out: Triglycerides (percent variation vs hyperlipaemic controls).
Setting [5] is: 300 mg/kg/day, by difference between total and HDL, read-out: Cholesterol VLDL + LDL (percent variation vs hyperlipaemic controls).
[6] abbreviates: 300 mg/kg/day, read-out: Cholesterol HDL (percent variation vs hyperlipaemic controls).
The mark [7] stands for this setting: 300 mg/kg/day, read-out: Total Cholesterol (percent variation vs hyperlipaemic controls).
Setting [8] is: 300 mg/kg/day, read-out: Triglycerides (percent variation vs hyperlipaemic controls).

With `CC(C)COC(=O)c1ccc(OCC(=O)CSc2nc3ccccc3o2)cc1` [Example 1, 2-[3-[(p-isobutyloxycarbonyl)-phenoxyl]-2-oxo-propylthio]-benzoxazole], the change in vivo at 100 mg/kg/day under setting [1] was -6.1%, the change in vivo at 100 mg/kg/day under setting [2] worked out at 2.6%, the change in vivo at 100 mg/kg/day under setting [3] was -5.7% and the change in vivo at 100 mg/kg/day under setting [4] is -27.6%. Further, the change in vivo at 300 mg/kg/day is -6.4% under setting [5], 17.9% under setting [6], -5.2% under setting [7] and -18.4% under setting [8]. Further, the “Hepatic index (percent variation vs hyperlipaemic controls)” value by setting is: (100 mg/kg/day) -8,5%; (300 mg/kg/day) -2,5%.

`CC(C)COC(=O)c1ccc(OCC(=O)CSc2nc3c([nH]2)c(=O)n(C)c(=O)n3C)cc1` [Example 3]: the change in vivo at 100 mg/kg/day was -1.3% under setting [1], 11.7% under setting [2], -1.1% under setting [3] and -6.5% under setting [4]. The change in vivo at 300 mg/kg/day runs as follows: under setting [5], -10.7%; under setting [6], 3.5%; under setting [7], -10.5%; under setting [8], -5.8%. For the same molecule, the “Hepatic index (percent variation vs hyperlipaemic controls)” value runs as follows: (100 mg/kg/day) “+3,2%”; (300 mg/kg/day) -1,5%.

Regarding `CC(C)COC(=O)c1ccc(OCC(O)CSc2nccn2C)cc1` (stereo not drawn) [Example 4, 1-methyl-2-[3-[(p-isobutyloxycarbonyl)-phenoxy]-2-hydroxy-propylthio]-imidazole hydrochloride], the change in vivo at 100 mg/kg/day runs as follows: under setting [1], 9.2%; under setting [2], -3.4%; under setting [3], 7.7%; under setting [4], -5.9%. Also, the change in vivo at 300 mg/kg/day reads like this: under setting [5], -4%; under setting [6], 8.2%; under setting [7], -2.6%; under setting [8], 0.2%. Moreover, the “Hepatic index (percent variation vs hyperlipaemic controls)” value (100 mg/kg/day) is recorded as “+2,2%” and the “Hepatic index (percent variation vs hyperlipaemic controls)” value (300 mg/kg/day) is “+4,3%”.

For the molecule `CC(C)COC(=O)c1ccc(OCC(O)CSc2ncccn2)cc1` (stereo not drawn) [Example 5, 2-[3-[(p-isobutyloxycarbonyl)-phenoxy]-2-hydroxy-propylthio]-pirimidine hydrochloride], the change in vivo at 100 mg/kg/day under setting [1] amounted to 24%, the change in vivo at 100 mg/kg/day under setting [2] was -17.7%, the change in vivo at 100 mg/kg/day under setting [3] was 22.3% and the change in vivo at 100 mg/kg/day under setting [4] amounted to 13.8%. The change in vivo at 300 mg/kg/day is -20.7% under setting [5], -8.5% under setting [6], -20.3% under setting [7] and -14.9% under setting [8]. Further, the “Hepatic index (percent variation vs hyperlipaemic controls)” value is -4,1% (100 mg/kg/day) and -5,7% (300 mg/kg/day).

Regarding `CCOc1ccc2nc(SCC(O)COc3ccc(C(=O)OCC(C)C)cc3)sc2c1` (stereo not drawn) [Example 9, 2-[3-[(p-isobutyloxycarbonyl)-phenoxy]-2-hydroxy-propylthio]6-ethoxy-benzothiazole], the change in vivo at 100 mg/kg/day runs as follows: under setting [1], 0.9%; under setting [2], 2.4%; under setting [3], 1%; under setting [4], 0.9%. Further, the change in vivo at 300 mg/kg/day is -7% under setting [5], -0.2% under setting [6], -6.5% under setting [7] and 2.8% under setting [8]. Moreover, the “Hepatic index (percent variation vs hyperlipaemic controls)” value by setting is: (100 mg/kg/day) -0,8%; (300 mg/kg/day) -1,2%.

Consider `CC(C)COC(=O)c1ccc(OCC(O)CSc2nc3cc(Cl)ccc3s2)cc1` (stereo not drawn) [Example 10, 2-[3-[(p-isobutyloxycarbonyl)-phenoxy]-2-hydroxy-propylthio]5-chloro-benzothiazole], for which the change in vivo at 100 mg/kg/day is -20.4% under setting [1], 5.5% under setting [2], -18.6% under setting [3] and -8.5% under setting [4]. Besides, the change in vivo at 300 mg/kg/day was -26.4% under setting [5], 17.3% under setting [6], -23.3% under setting [7] and -26.3% under setting [8]. Further, the “Hepatic index (percent variation vs hyperlipaemic controls)” value by setting is: (100 mg/kg/day) -2,2%; (300 mg/kg/day) -0,6%.

Regarding `CC(C)COC(=O)c1ccc(OCC(CSc2nc3ccccc3o2)OC(=O)c2cccnc2)cc1` (stereo not drawn) [Example 12], the change in vivo at 100 mg/kg/day runs as follows: under setting [1], 11.5%; under setting [2], 12.5%; under setting [3], 11.6%; under setting [4], -19%. Also, the change in vivo at 300 mg/kg/day is -8.9% under setting [5], 8.6% under setting [6], -7.8% under setting [7] and -39.4% under setting [8]. For the same molecule, the “Hepatic index (percent variation vs hyperlipaemic controls)” value is, setting by setting: (100 mg/kg/day) -3,9%; (300 mg/kg/day) -10,8%.

Consider `CC(C)COC(=O)c1ccc(OCC(O)CSc2nc3cc4ccccc4cc3o2)cc1` (stereo not drawn) [Example 15], for which the change in vivo at 100 mg/kg/day by setting is: under setting [1], 17.6%; under setting [2], 0.8%; under setting [3], 16.5%; under setting [4], 5%. Besides, the change in vivo at 300 mg/kg/day runs as follows: under setting [5], -9.8%; under setting [6], 13.4%; under setting [7], -8.2%; under setting [8], 5.2%. In addition, the “Hepatic index (percent variation vs hyperlipaemic controls)” value runs as follows: (100 mg/kg/day) -2,6%; (300 mg/kg/day) “+0,6%”.

`CC(C)COC(=O)c1ccc(OCC(O)CSc2nc3ccccc3[nH]2)cc1` (stereo not drawn) [Example 18]: the change in vivo at 100 mg/kg/day under setting [1] is 0.2%, the change in vivo at 100 mg/kg/day under setting [2] worked out at 3.2%, the change in vivo at 100 mg/kg/day under setting [3] worked out at 1% and the change in vivo at 100 mg/kg/day under setting [4] is -19%. Also, the change in vivo at 300 mg/kg/day by setting is: under setting [5], 9%; under setting [6], 6.5%; under setting [7], 9.1%; under setting [8], -13.1%. Further, the “Hepatic index (percent variation vs hyperlipaemic controls)” value (100 mg/kg/day) was “+3,8%” and the “Hepatic index (percent variation vs hyperlipaemic controls)” value (300 mg/kg/day) was “+3,9%”.

With `CC(C)COC(=O)c1ccc(OCCCSc2nc3c(N)ncnc3n2[C@@H]2O[C@H](CO)[C@@H](O)[C@H]2O)cc1` [Example 25], the change in vivo at 100 mg/kg/day was -10% under setting [1], -1.2% under setting [2], -9.7% under setting [3] and -3.3% under setting [4]. The change in vivo at 300 mg/kg/day under setting [5] was -4.8%, the change in vivo at 300 mg/kg/day under setting [6] is -7.1%, the change in vivo at 300 mg/kg/day under setting [7] was -5.2% and the change in vivo at 300 mg/kg/day under setting [8] worked out at 15.7%. Moreover, the “Hepatic index (percent variation vs hyperlipaemic controls)” value reads like this: (100 mg/kg/day) -1,1%; (300 mg/kg/day) -2,8%.

Take `CC(C)COC(=O)c1ccc(OCCSc2nc3c(N)ncnc3n2[C@@H]2O[C@H](CO)[C@@H](O)[C@H]2O)cc1` [Example 27]: the change in vivo at 100 mg/kg/day was -14.6% under setting [1], 0.1% under setting [2], -13.6% under setting [3] and -0.4% under setting [4]. For the same molecule, the change in vivo at 300 mg/kg/day was -19.3% under setting [5], 5.7% under setting [6], -18.4% under setting [7] and -10.2% under setting [8]. For the same molecule, the “Hepatic index (percent variation vs hyperlipaemic controls)” value is “+0,8%” (100 mg/kg/day) and “+0,7%” (300 mg/kg/day).

`CC(C)COC(=O)c1ccc(OCC(CSc2nc3c(N)ncnc3n2[C@@H]2O[C@H](CO)[C@@H](O)[C@H]2O)=NO)cc1` [Example 31]: the change in vivo at 100 mg/kg/day under setting [1] is -6.6%, the change in vivo at 100 mg/kg/day under setting [2] came out at 3.2%, the change in vivo at 100 mg/kg/day under setting [3] is -0.3% and the change in vivo at 100 mg/kg/day under setting [4] is 14.7%. For the same molecule, the change in vivo at 300 mg/kg/day is -25.7% under setting [5], -5.1% under setting [6], -24.7% under setting [7] and -0.7% under setting [8]. Also, the “Hepatic index (percent variation vs hyperlipaemic controls)” value runs as follows: (100 mg/kg/day) “+3,6%”; (300 mg/kg/day) -1,5%.
